“And” between values parts separate entries of the source, which are not always exact repeats. Identical values can stand only once.
What was measured:
[1] = molecular target: T1, E. faecium PolC^F1276L (exonuclease-inactivated) (Enterococcus faecium, UniProt A0A9X4B319, D429A/E431A/F1274L); test: Real-time DNA primer extension assay; type: biochemical; details: for rate of activity (slope of fluorescence intensity change over time): Fig. 4b source data, F1276L
T1 sequence (A0A9X4B319 1-1450 D429A/E431A/F1274L): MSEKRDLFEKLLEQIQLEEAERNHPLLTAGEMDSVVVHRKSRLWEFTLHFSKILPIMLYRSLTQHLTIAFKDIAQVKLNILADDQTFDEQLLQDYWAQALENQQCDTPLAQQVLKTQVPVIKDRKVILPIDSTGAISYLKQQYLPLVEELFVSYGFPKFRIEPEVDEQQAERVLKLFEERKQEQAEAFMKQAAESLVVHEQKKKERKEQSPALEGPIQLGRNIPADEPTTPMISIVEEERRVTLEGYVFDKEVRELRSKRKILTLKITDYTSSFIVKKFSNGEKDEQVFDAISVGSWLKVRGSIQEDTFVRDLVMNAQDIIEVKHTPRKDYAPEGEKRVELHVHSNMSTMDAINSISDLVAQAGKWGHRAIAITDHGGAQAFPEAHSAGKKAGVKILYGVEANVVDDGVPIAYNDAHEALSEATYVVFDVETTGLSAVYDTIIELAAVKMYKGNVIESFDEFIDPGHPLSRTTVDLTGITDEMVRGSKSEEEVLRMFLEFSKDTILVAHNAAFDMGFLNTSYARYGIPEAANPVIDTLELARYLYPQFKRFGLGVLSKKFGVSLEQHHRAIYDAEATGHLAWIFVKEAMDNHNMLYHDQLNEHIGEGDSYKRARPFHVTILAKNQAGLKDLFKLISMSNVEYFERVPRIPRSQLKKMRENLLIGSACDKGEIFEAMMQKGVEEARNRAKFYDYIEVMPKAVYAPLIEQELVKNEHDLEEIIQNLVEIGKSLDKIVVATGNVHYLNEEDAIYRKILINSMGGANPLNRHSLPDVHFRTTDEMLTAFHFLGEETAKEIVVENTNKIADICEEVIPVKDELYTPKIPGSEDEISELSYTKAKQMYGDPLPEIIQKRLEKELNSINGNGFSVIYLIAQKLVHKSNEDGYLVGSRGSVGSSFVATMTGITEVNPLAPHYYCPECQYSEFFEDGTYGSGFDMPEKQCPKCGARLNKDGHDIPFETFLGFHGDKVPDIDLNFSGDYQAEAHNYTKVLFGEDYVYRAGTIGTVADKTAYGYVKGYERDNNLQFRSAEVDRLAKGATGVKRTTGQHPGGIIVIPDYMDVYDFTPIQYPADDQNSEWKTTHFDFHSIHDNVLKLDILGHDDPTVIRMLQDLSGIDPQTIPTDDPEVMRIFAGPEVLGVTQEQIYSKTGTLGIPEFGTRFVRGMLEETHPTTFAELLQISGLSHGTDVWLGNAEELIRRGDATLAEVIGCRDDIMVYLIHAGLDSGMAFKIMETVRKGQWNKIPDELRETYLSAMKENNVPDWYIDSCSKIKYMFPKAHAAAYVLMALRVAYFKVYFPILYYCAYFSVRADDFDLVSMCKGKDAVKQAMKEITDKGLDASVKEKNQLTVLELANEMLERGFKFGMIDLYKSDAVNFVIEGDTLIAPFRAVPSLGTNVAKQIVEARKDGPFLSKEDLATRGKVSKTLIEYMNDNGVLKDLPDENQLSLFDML
Text: The genes for PolC (locus_tag: MIBBHLJO_01574) and DnaE (locus_tag: MIBBHLJO_00911) from E. faecium ATCC 700221 were codon-optimized for expression in E. coli and synthesized in vector pET28b by Twist Bioscience (San Francisco, CA). Expression constructs for variant PolC proteins were created with QuikChange Site-Directed Mutagenesis (Agilent) with oligonucleotides listed in Supplementary Table 3. F1276L, F1276S, and A1281T were introduced to assess the effect of these mutations on inhibition by ACX compounds. Mutations D972A and D974A were introduced to inactivate the polymerase activity and mutations D431A and E433A were introduced to inactivate the exonuclease activity (Fig. 1d, Supplementary Fig. 1).
Polymerase activity was monitored in real-time[31],[32] with a 42-nt long 5’ carboxyfluorescein-labelled DNA oligonucleotide template strand (DNASP8_42) annealed to a 30-nt primer oligonucleotide (oMU014). Polymerase activity in this assay is monitored by measuring fluorescence quenching of the labelled DNA template as a result of primer extension by PolC (for details see Supplementary Fig. 1b, c). Both primers were HPLC purified. Primer extension assays were performed in Reaction Buffer (see Gel-based polymerase and exonuclease assays) supplemented with 0.5 mg/mL BSA, 0.05% Tween20 and 25 uM of each dNTP (SRB) in 384-well Black Round Bottom plates (Corning 4514). The polymerase was diluted in the SRB and incubated for at least 5 min in the presence of inhibitor or solvent, with a final solvent concentration of 1%. The reaction was initiated by the addition of an equal volume of DNA substrate in SRB as described below. Fluorescence emission data was collected with a BMG Labtech PHERAstar FSX reader for 30 min at room temperature.
Compounds were dispensed with an Echo acoustic liquid handler (Beckman Coulter). All compounds were dissolved to 1 mM and 10 mM stocks in 100% DMSO and transferred to Echo LDV or PP source plates (Labcyte, Inc., CA), then dispensed to 384-well plates with a Labcyte Echo550 or Echo650 acoustic dispenser at volumes of 2.5 to 100 nL per well. […] A Mantis microfluidic liquid dispenser (Formulatrix) was used to dispense 5 µL polymerase and 5 µL substrate DNA (individually diluted in SRB) per well. […] The final concentration of DNA was 70 nM.
Data were analysed and standard error of the means (SEM) determined in Prism 8.4.2 and 10.2.3 (GraphPad). Raw time-course polymerase activity was plotted against time, with SEM of triplicates determined. The rate of activity (represented by signal quenching) was determined during the first 8 min (linear stage) by calculating the slope of fluorescence intensity change (converted to a positive value) over time (in seconds). The slopes were then normalized to percentage activity (%); per ‘replicate range’, 100% activity was defined as polymerase activity in the absence of inhibitor (polymerase control), and 0% activity was determined in the absence of polymerase (DNA signal; negative control). The SEM was determined between ‘replicate ranges’. The IC50 was determined using the dose-response (inhibition) nonlinear regression ‘[Inhibitor] vs. response (three parameters)’ without constraints.

[2] = cited from earlier work
[3] = system: Clostridioides difficile infection; design: method as in PMID 35862742, PMID 35134880; details: patients cured of CDI through treatment with IBZ; cited from earlier work

Row | SMILES | IC50 [1] [µM] | rate of activity (slope of fluorescence intensity change over time) ([1]; inhibitor 4 uM) | rate of activity (slope of fluorescence intensity change over time) ([1]; inhibitor 5.75 uM) | rate of activity (slope of fluorescence intensity change over time) ([1]; inhibitor 8.8 uM) | rate of activity (slope of fluorescence intensity change over time) ([1]; inhibitor 20 uM) | rate of activity (slope of fluorescence intensity change over time) ([1]; inhibitor 30 uM) | rate of activity (slope of fluorescence intensity change over time) ([1]; inhibitor 45 uM) | rate of activity (slope of fluorescence intensity change over time) ([1]; inhibitor 67.5 uM) | rate of activity (slope of fluorescence intensity change over time) ([1]; inhibitor 100 uM) | rate of activity (slope of fluorescence intensity change over time) ([1]; inhibitor 150 uM) | absorption [2] | faecal levels [2] [μg/g stool] | recurrence of CDI during the post-treatment study period [3]
1 | O=c1[nH]c(NCc2ccc3c(c2)OC(F)(F)O3)nc2c(F)nn(CCO)c12 [ACX-801, 5-(((2,2-difluorobenzo[d][1,3]dioxol-5-yl)methyl)amino)-3-fluoro-1-(2-hydroxyethyl)-1,6-dihydro-7H-pyrazolo[4,3-d]pyrimidin-7-one] | > 225 | 29.6 and 27.7 and 30.1 | 28.5 and 26.4 and 28.8 | 26.7 and 28.0 and 26.2 | 25.3 and 26.0 and 26.9 | 26.3 and 26.7 and 25.0 | 25.4 |  |  |  |  |  | 
2 | O=c1[nH]c(NCc2ccc(Cl)c(Cl)c2)nc2ncn(CCN3CCOCC3)c12 [IBZ, N^2-(3,4-dichlorobenzyl)-7-(2-[1-morpholinyl]ethyl)guanine] | > 225 | 28.2 and 29.1 and 29.0 | 29.9 and 30.4 | 26.3 and 30.0 | 26.8 and 26.3 | 27.4 and 27.1 | 25.1 and 26.5 and 24.8 | 23.8 and 26.5 and 24.8 | 24.9 and 23.0 and 25.8 | 23.2 | poorly absorbed | > 1000 | no recurrence was observed

Source: publication PMC12592400, “A unique inhibitor conformation selectively targets the DNA polymerase PolC of Gram-positive priority pathogens” (Nature Communications, 2025)
